Target: T1, LmbF (Streptomyces lincolnensis, UniProt A9Y8R7)
T1 construct: recombinant protein; details only in ESI
Experiment: in vitro turnover of […] with and without PLP, LC-MS
Format: biochemical
Settings: no turnover without PLP; covalent binding to the substrate amino group is proposed

T1 sequence (A9Y8R7 entry or part of it): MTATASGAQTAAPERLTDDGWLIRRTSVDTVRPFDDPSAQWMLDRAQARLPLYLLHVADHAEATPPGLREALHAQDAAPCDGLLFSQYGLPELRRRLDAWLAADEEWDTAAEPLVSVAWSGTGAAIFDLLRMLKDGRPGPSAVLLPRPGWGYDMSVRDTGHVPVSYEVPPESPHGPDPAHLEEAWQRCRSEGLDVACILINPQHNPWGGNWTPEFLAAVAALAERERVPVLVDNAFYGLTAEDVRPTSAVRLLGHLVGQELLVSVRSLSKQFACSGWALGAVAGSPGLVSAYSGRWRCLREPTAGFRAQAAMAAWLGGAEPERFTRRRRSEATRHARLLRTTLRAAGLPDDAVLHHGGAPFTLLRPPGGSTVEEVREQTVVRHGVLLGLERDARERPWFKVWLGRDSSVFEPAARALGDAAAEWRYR

SMILES: Cc1ncc(COP(=O)(O)O)c(C=O)c1O [pyridoxal-5′-phosphate]
- in vitro turnover of 479 with and without PLP, LC-MS: LmbF failed to carry out this reaction in the absence of PLP

From PMC5518657, “Deacetylation of mycothiol-derived ‘waste product’ triggers the last biosynthetic steps of lincosamide antibiotics” (Chemical Science, 2015)
